Among the data in patent publication EP1147080B1 (Wyeth Holdings Corporation, priority 1999, dated 2000) are IC50 values, retold here.

The assay has as its target TNF-α converting enzyme (TACE) (Homo sapiens, UniProt P78536). In words: Test procedure for measuring TACE inhibition (fluorescent peptidyl substrate). The format is biochemical. Particulars: Table 1.

Sequence of TNF-α converting enzyme (TACE) (P78536 215-824): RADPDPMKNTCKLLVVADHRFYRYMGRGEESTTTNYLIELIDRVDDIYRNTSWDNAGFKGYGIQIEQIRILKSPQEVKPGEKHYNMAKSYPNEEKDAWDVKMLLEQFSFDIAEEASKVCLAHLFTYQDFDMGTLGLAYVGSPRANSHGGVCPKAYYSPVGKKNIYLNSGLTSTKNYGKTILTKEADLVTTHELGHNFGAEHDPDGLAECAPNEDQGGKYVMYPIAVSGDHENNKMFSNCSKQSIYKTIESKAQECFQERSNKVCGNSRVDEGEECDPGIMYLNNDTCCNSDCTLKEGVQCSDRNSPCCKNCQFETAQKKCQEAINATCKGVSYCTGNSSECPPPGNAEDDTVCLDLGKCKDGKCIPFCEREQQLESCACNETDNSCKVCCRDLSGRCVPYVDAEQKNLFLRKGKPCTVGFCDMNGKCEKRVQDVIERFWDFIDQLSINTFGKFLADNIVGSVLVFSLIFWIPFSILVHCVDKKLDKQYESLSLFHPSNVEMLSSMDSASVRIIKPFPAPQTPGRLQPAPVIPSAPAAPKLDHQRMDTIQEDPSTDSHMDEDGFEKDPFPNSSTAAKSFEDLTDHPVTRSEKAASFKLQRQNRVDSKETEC

In the case of `CC#CCOc1ccc(S(=O)(=O)C(CCCCNC(=O)c2nccc3ccccc23)C(=O)NO)cc1` (stereo not drawn) [Example 41, Isoquinoline-1-carboxylic acid [5-(4-but-2-ynyloxy-benzenesulfonyl)-5-hydroxycarbamoyl-pentyl]-amide], the IC50 worked out at 37.3 nM.
As for `CC#CCOc1ccc(S(=O)(=O)C(CCCCNC(=O)C(c2ccccc2)c2ccccc2)C(=O)NO)cc1` (stereo not drawn) [Example 40, 2-(4-But-2-ynyloxy-benzenesulfonyl)-6-diphenylacetylamino-hexanoic acid hydroxyamide], half-maximal inhibition (IC50) was put at 59.1 nM.
The figure for `CC#CCOc1ccc(SC(CCCCNC(=O)CNC(=O)Cc2csc3ccccc23)C(=O)NO)cc1` (stereo not drawn) [Example 52] is 70.2 nM; for “N-[5-(4-But-2-ynyloxy-benzenesulfonyl)-5-hydroxycarbamoyl-pentyl]-2-phenethyl-benzamide [Example 34]” it is 147 nM; for `CC#CCOc1ccc(SC(CCCCNC(=O)CNC(=O)C(c2ccccc2)c2ccccc2)C(=O)NO)cc1` (stereo not drawn) [Example 49, 2-(4-But-2-ynyloxy-phenylsulfanyl)-6-(2-diphenylacetylamino-acetylamino)-hexanoic acid hydroxyamide] it is 53.8 nM.
The compound `CC#CCOc1ccc(SC(CCCCNC(=O)c2nccc3ccccc23)C(=O)NO)cc1` (stereo not drawn) [Example 21, Isoquinoline-1-carboxylic acid [5-(4-but-2-ynyloxy-phenylsulfanyl)-5-hydroxycarbamoylpentyl]-amide] yielded an IC50 of 20.1 nM.
The figure for `CC#CCOc1ccc(SC(CCCCNC(=O)C(c2ccccc2)c2ccccc2)C(=O)NO)cc1` (stereo not drawn) [Example 20, 2-(4-But-2-ynyloxy-phenylsulfanyl)-6-diphenylacetylamino-hexanoic acid hydroxyamide] is 88.6 nM.
In the case of `CC#CCOc1ccc([S+]([O-])C(CCCCNC(=O)CNC(=O)c2ccc3ccccc3n2)C(=O)NO)cc1` (stereo not drawn) [Example 54], the midpoint of inhibition, the IC50, lay at 27.2 nM.
Regarding `CC#CCOc1ccc(S(=O)(=O)C(CCCCNC(=O)CNC(=O)Cc2csc3ccccc23)C(=O)NO)cc1` (stereo not drawn) [Example 69], 29.2 nM corresponded to half-maximal inhibition (IC50).
`CC#CCOc1ccc(S(=O)(=O)C(CCCCNC(=O)CN2C(=O)c3ccccc3C2=O)C(=O)NO)cc1` (stereo not drawn) [Example 36, 2-(4-But-2-ynyloxy-benzenesulfonyl)-6-[2-(1,3-dioxo-1,3-dihydro-isoindol-2-yl)-acetylamino]-hexanoic acid hydroxyamide] showed an IC50 of 16.8 nM.
In the case of `CC#CCOc1ccc(S(=O)(=O)C(CCCCNC(=O)CNC(=O)C2c3ccccc3Oc3ccccc32)C(=O)NO)cc1` (stereo not drawn) [Example 67, 9H-Xanthene-9-carboxylic acid {[5-(4-but-2-ynyloxy-benzenesulfonyl)-5-hydroxycarbamoyl-pentylcarbamoyl]-methyl}-amide], the IC50 was found to be 34.8 nM.
`CC#CCOc1ccc(S(=O)(=O)C(CCCCNC(=O)CNC(=O)C(c2ccccc2)c2ccccc2)C(=O)NO)cc1` (stereo not drawn) [Example 62, 2-(4-But-2-ynyloxy-benzenesulfonyl)-6-(2-diphenylacetylamino-acetylamino)-hexanoic acid hydroxyamide]: the IC50 is 31.9 nM.
As to “2-(4-But-2-ynyloxy-benzenesulfinyl)-6-diphenylacetylamino-hexanoic acid hydroxyamide [Example 60]”, the 50% inhibitory concentration (IC50) is 40.9 nM.
In turn, `CC#CCOc1ccc(SC(CCCCNC(=O)CN2C(=O)c3ccccc3C2=O)C(=O)NO)cc1` (stereo not drawn) [Example 13, 2-(4-But-2-ynyloxy-phenylsulfanyl)-6-[2-(1,3-dioxo-1,3-dihydroiso-indol-2-yl)-acetylamino]-hexanoic acid hydroxyamide] had an IC50 of 42.5 nM.
With `CC#CCOc1ccc(SC(CCCCNC(=O)CNC(=O)C2c3ccccc3Oc3ccccc32)C(=O)NO)cc1` (stereo not drawn) [Example 48, 9H-Xanthene-9-carboxylic acid {[5-(4-but-2-ynyloxy-phenylsulfanyl)-5-hydroxycarbamoylpentylcarbamoyl]-methyl}-amide], the IC50 came to 82.1 nM.
`CC#CCOc1ccc(SC(CCCCNC(=O)c2cnc3ccccc3c2)C(=O)NO)cc1` (stereo not drawn) [Example 17, Quinoline-3-carboxylic acid [5-(4-but-2-ynyloxy-phenylsulfanyl)-5-hydroxycarbamoylpentyl]-amide] returned an IC50 of 43.7 nM.
`CC#CCOc1ccc(SC(CCCCNC(=O)CNC(=O)c2ccc3ccccc3n2)C(=O)NO)cc1` (stereo not drawn) [Example 44, Quinoline-2-carboxylic acid {[5-(4-but-2-ynyloxy-phenylsulfanyl)-5-hydroxycarbamoylpentylcarbamoyl]-methyl}-amide]: the IC50 was 32.1 nM.
As for `CC#CCOc1ccc(SC(CCCCNC(=O)CNC(=O)c2ccccc2CCc2ccccc2)C(=O)NO)cc1` (stereo not drawn) [Example 46], the figure is 84.2 nM; as for `CC#CCOc1ccc(S(=O)(=O)C(CCCCNC(=O)CNC(=O)Cc2c[nH]c3ccccc23)C(=O)NO)cc1` (stereo not drawn) [Example 70, 2-(4-But-2-ynyloxy-benzenesulfonyl)-6-[2-(2-1H-indol-3-yl-acetylamino)-acetylamino]-hexanoic acid hydroxyamide], 88.1 nM.
As to `CC#CCOc1ccc(SC(CCCCNC(=O)Cc2csc3ccccc23)C(=O)NO)cc1` (stereo not drawn) [Example 22, 6-(2-Benzo[b]thiophen-3-yl-acetylamino)-2-(4-but-2-ynyloxy-phenylsulfanyl)-hexanoic acid hydroxyamide], the IC50 came out at 32.8 nM.
Turning to `CC#CCOc1ccc(SC(CCCCNC(=O)Cc2ccc(Cl)c(Cl)c2)C(=O)NO)cc1` (stereo not drawn) [Example 16, 2-(4-But-2-ynyloxy-phenylsulfanyl)-6-[2-(3,4-dichloro-phenyl)-acetylamino]-hexanoic acid hydroxyamide], the IC50 stood at 24.9 nM.
`CC#CCOc1ccc([S+]([O-])C(CCCCNC(=O)CCCc2cccs2)C(=O)NO)cc1` (stereo not drawn) [Example 28, 2-(4-But-2-ynyloxy-benzenesulfinyl)-6-(4-thiophen-2-yl-butyrylamino)-hexanoic acid hydroxyamide] came in with an IC50 of 26.6 nM.
On to `CC#CCOc1ccc(SC(CCCCNC(=O)C2c3ccccc3Oc3ccccc32)C(=O)NO)cc1` (stereo not drawn) [Example 19, 9H-Xanthene-9-carboxylic acid [5-(4-but-2-ynyloxy-phenylsulfanyl)-5-hydroxycarbamoylpentyl]-amide], for which the IC50 was found to be 43.3 nM.
`CC#CCOc1ccc([S+]([O-])C(CCCCNC(=O)c2cnc3ccccc3c2)C(=O)NO)cc1` (stereo not drawn) [Example 27, Quinoline-3-carboxylic acid [5-(4-but-2-ynyloxy-benzenesulfinyl)-5-hydroxycarbamoylpentyl]-amide] showed an IC50 of 46.3 nM.
`CC#CCOc1ccc(S(=O)(=O)C(CCCCNC(=O)Cc2csc3ccccc23)C(=O)NO)cc1` (stereo not drawn) [Example 42, 6-(2-Benzo[b]thiophen-3-yl-acetylamino)-2-(4-but-2-ynyloxy-benzenesulfonyl)-hexanoic acid hydroxyamide] came in with an IC50 of 24.9 nM.
The compound `CC#CCOc1ccc([S+]([O-])C(CCCCNC(=O)c2ccccc2CCc2ccccc2)C(=O)NO)cc1` (stereo not drawn) [Example 25, N-[5-(4-But-2-ynyloxy-benzenesulfinyl)-5-hydroxycarbamoyl-pentyl]-2-phenethylbenzamide] showed a 50% inhibitory concentration (IC50) of 43.5 nM.
Consider `CC#CCOc1ccc([S+]([O-])C(CCCCNC(=O)CN2C(=O)c3ccccc3C2=O)C(=O)NO)cc1` (stereo not drawn) [Example 24, 2-(4-But-2-ynyloxy-benzenesulfinyl)-6-[2-(1,3-dioxo-1,3-dihydro-isoindol-2-yl)-acetylamino]-hexanoic acid hydroxyamide], for which the IC50 is 30 nM.
The compound `CC#CCOc1ccc(S(=O)(=O)C(CCCCNC(=O)CNC(=O)CN2C(=O)c3ccccc3C2=O)C(=O)NO)cc1` (stereo not drawn) [Example 63, 2-(4-But-2-ynyloxy-benzenesulfonyl)-6-{2-[2-(1,3-dioxo-1,3-dihydro-isoindol-2-yl)-acetyl-amino]-acetylamino}-hexanoic acid hydroxyamide] showed an IC50 of 16.1 nM.
The figure for `CC#CCOc1ccc(SC(CCCCNC(=O)CNC(=O)CN2C(=O)c3ccccc3C2=O)C(=O)NO)cc1` (stereo not drawn) [Example 45, 2-(4-But-2-ynyloxy-phenylsulfanyl)-6-{2-[2-(1,3-dioxo-1,3-dihydro-isoindol-2-yl)-acetylamino]-acetylamino}-hexanoic acid hydroxyamide] is 16.1 nM; for `CC#CCOc1ccc(SC(CCCCNC(=O)CNC(=O)c2cnc3ccccc3c2)C(=O)NO)cc1` (stereo not drawn) [Example 47, Quinoline-3-carboxylic acid {[5-(4-but-2-ynyloxy-phenylsulfanyl)-5-hydroxycarbamoyl-pentylcarbamoyl]-methyl}-amide] it is 18.9 nM; for `CC#CCOc1ccc(SC(CCCCNC(=O)CNC(=O)c2nccc3ccccc23)C(=O)NO)cc1` (stereo not drawn) [Example 50, Isoquinoline-1-carboxylic acid {[5-(4-but-2-ynyloxy-phenylsulfanyl)-5-hydroxycarbamoylpentylcarbamoyl]-methyl}-amide] it is 35.9 nM.
`CC#CCOc1ccc(S(=O)(=O)C(CCCCNC(=O)CNC(=O)c2nccc3ccccc23)C(=O)NO)cc1` (stereo not drawn) [Example 68, Isoquinoline-1-carboxylic acid {[5-(4-but-2-ynyloxy-benzenesulfonyl)-5-hydroxycarbamoyl-pentylcarbamoyl]-methyl}-amide] gave an IC50 of 21.2 nM.
On to `CC#CCOc1ccc(S(=O)(=O)C(CCCCNC(=O)c2cnc3ccccc3c2)C(=O)NO)cc1` (stereo not drawn) [Example 38, Quinoline-3-carboxylic acid [5-(4-but-2-ynyloxy-benzenesulfonyl)-5-hydroxycarbamoylpentyl]-amide], for which the IC50 was found to be 39.9 nM.
The figure for `CC#CCOc1ccc([S+]([O-])C(CCCCNC(=O)CNC(=O)CN2C(=O)c3ccccc3C2=O)C(=O)NO)cc1` (stereo not drawn) [Example 55, 2-(4-But-2-ynyloxy-benzenesulfinyl)-6-[2-(1,3-dioxo-1,3-dihydro-isoindol-2-yl)-acetylammo]-hexanoic acid hydroxyamide] is 38.5 nM.
As for `CC#CCOc1ccc(SC(CCCCNC(=O)CCCc2cccs2)C(=O)NO)cc1` (stereo not drawn) [Example 18, 2-(4-But-2-ynyloxy-phenylsulfanyl)-6-(4-thiophen-2-yl-butyrylamino)-hexanoic acid hydroxyamide], the figure is 36.9 nM; as for `CC#CCOc1ccc(SC(CCCCNC(=O)c2ccc3ccccc3n2)C(=O)NO)cc1` (stereo not drawn) [Example 14, Quinoline-2-carboxylic acid [5-(4-but-2-ynyloxy-phenylsulfanyl)-5-hydroxycarbamoylpentyl]-amide], 62.9 nM.

What is called IC50 is the concentration that gives 50% inhibition.
